This is an account of results in patent US20100129344A1, “MEDICAL USES AND THERAPIES BASED UPON THE ACTION OF AZUROCIDIN ON IGFBP-1” (priority 2005, published 2010).

Entries after “also recorded” stand apart in the source; their conditions may differ. Read-outs that look alike come from different tables or passages of the source. Where a SMILES comes first, the peptide text is derived from it. [ ]: non-standard residue; d: D form. The star is where a group is joined. Sta = CC(C)C[C@H](N)[C@@H](O)CC(=O)O; Isovaleryl = CC(C)CC(=O)*

Data set [1] relates to urinary protease activity at neutral pH (IGFBP-1 proteolysis). Kind of data set: Effect of protease inhibitors, divalent cations and peptides on urinary protease activity at neutral pH (radioiodinated npIGFBP-1, SDS-PAGE, autoradiography). Particulars: for effect on proteolysis in urine: not shown; for effect of peptides on IGFBP-1 proteolysis: increasing concentrations pre-incubated with npIGFBP-1 30 min 22 C, then 0.5 μl urine 2 h 37 C (FIG. 8A). In kind it is biochemical, human. On the procedure:
A: Effect of 100 μM pepstatin A, 10 μM E64, 2.5 mM leupeptin, 10 mM PMSF, 100 μM aprotinin, 2.5 mM kallikrein inhibitor and benzamidine (mM) and chymostatin (μM). Molecular mass markers are indicated by the arrows. B: Densitometry measurements of intact IGFBP-1. The results are the mean±SEM, pooled from 6-8 experiments. […] The mean effect of urine pooled from all the experiments is shown in the open bar. *, P<0.05; ** P<0.01 (paired t-test);
(§1) Urine, 0.5 μl, was added and the incubation continued for 2 h at 37 C. The fragments were separated by 14% SDS-PAGE and detected by autoradiography. Molecular mass markers are indicated by the arrows. B: Biotinylated recombinant pIGFBP-1 was bound to streptavidin coated plates and then incubated without (open squares) or with 100 ng IGF-I (closed circles) or des(1-3)IGF-I (open circles). Wells were then incubated with increasing concentration of partially purified azurocidin at […] for 2-h at 37 C. After acidification of all wells, including controls, with 1 M HCl to dissociate bound peptides, radioiodinated IGF-I was added for 2 h at 22 C, unbound tracer was removed by washing, and the bound counts determined;
IGFBP-1 was radioiodinated with ^125I using the chloramine T method. After incubation without and with protease in phosphate buffered saline, pH 7 at 37 C, fragments were separated on 14% non-reducing SDS-PAGE, the gel dried, and visualized by autoradiography.

The test system of data set [2] is acid-activated IGFBP-1 protease activity in human urine. Kind of data set: Effect of pepstatin on urinary IGFBP-1 protease activity at pH 2 (streptavidin plate, IGF-II binding). It is filed as biochemical. The settings on record: pepstatin A 10 μM, pH 2, 5 μl urine, 2 h, 37 C. Here is the method: (§2) A-D: Radioiodinated recombinant npIGFBP-1 was subjected to 14% SDS-PAGEalone (*) or after proteolysis for 2 h at 37 C with 0.5 μl urine or 0.25 μl eluate, and the fragments detected by autoradiography. Molecular mass markers are indicated by the arrows. A: pH-dependence of urinary IGFBP-1 protease activity. B: Urine, flowthrough (FT) from the heparin affinity column, and eluate at pH 2 and 7. C: pHdependence of eluate from heparin affinity chromatography. D: Acid-activated protease activity is destroyed by neutralization. Radioiodinated pIGFBP-1 was incubated without (*) and with 0.5 μl urine for 2 h at 37 C at pH 2. Prior to incubation the urine was either untreated (lane a), adjusted to pH 2 for 15 min (lane B) or adjusted to pH 2 for 15 min and then to pH 7 for a further 15 min (lane C). E: Effect of pepstatin. […] The wells were washed, incubated with radioiodinated IGF-II for 2 h at 22 C, washed, and the bound counts detected;
(§3) IGFBP-1 was biotinylated with sulfo-NHS-LC-LC-biotin and bound to streptavidin coated plates, then incubated without and with protease in phosphate buffered saline, pH 7 at 37 C. After washing, IGF-binding fragments were determined by incubation with radioiodinated IGF-I for 2 h at 22 C. Unbound tracer was removed by washing, and the bound counts determined.

Data set [3] relates to neutral IGFBP-1 protease activity in human urine. The experiment in a line: Effect of pepstatin on urinary IGFBP-1 protease activity at pH 7 (streptavidin plate, IGF-II binding). It is filed as biochemical. Particulars: pepstatin A 10 μM, pH 7, 5 μl urine, 2 h, 37 C. On the procedure:
as §2, §3

For data set [4], the system named is MCF-7 human breast cancer cells. Kind of data set: 3H-Thymidine incorporation. In kind it is cell-based. The settings on record: IGF-II 10 ng/ml, 24 h, serum-free; 6 experiments. Here is the method: Cell studies. MCF-7 human breast cancer cells were maintained in MEM alpha ribonucleic acid-free medium supplemented with 10% foetal bovine serum, 50 Unit/ml penicillin sodium, 50 μg/ml streptomycin sulfate and 2 mM L-glutamine at 37C in 5% CO2 humidified environment.
3H-Thymidine incorporation: Experiments were carried out in 48-well plates, at 70% confluence. After a 20-h incubation in serum-free medium supplemented with 0.1% BSA, the experimental conditions were added for a further 24 h, with ^3H-thymidine (1 μCi/ml) added for the last 4 h. Cells were then washed with ice-cold 0.9% NaCl three times and incubated with ice-cold 5% TCA for 15 min at 22 C. The fixed nucleotides were solubilized in 0.1M NaOH at 22 C and subjected to liquid scintillation counting.
Statistical analyses. The effect of IGF-II and IGFBP-1 in muscle cell culture was analyzed by two-way ANOVA. Where significant differences were observed, comparisons were made using the Tukey test. In the study using MCF-7 breast cancer cells the Wolcoxon Matched Pairs test was used. Statistical significance was set at P<0.05.
A general note: Uptake of a labelled nucleoside into DNA is a usual measure of proliferation.

Data set [5] concerns primary human skeletal myotubes. Kind of data set: 2-Deoxyglucose transport (glucose uptake). In kind it is cell-based. The settings on record: IGF-II 10 ng/ml (submaximal), 90 min. Here is the method: Primary human skeletal myotubes were incubated under serum-free conditions for 24 h. Glucose uptake was determined as described in the Methods. The results are the mean±SEM of four experiments using cells from different individuals each with 3 replicates; and are expressed as the percentage of uptake in the absence of IGF-II or IGFBP-1 for each. The effect of IGF-II is shown in the hatched bars. The effect of pIGFBP-1 on stimulation of glucose uptake by 10 ng/ml IGF-II was analyzed by 2-way ANOVA for each of the 20 ng/ml and 80 ng/ml concentrations; *, P<0.01, **, P<0.001, compared to no IGF-II; ††, P<0.001, compared to no IGFBP-1 or intact IGFBP-1. […]
2-Deoxyglucose transport: Glucose uptake was performed as previously described for primary human muscle cells (Bouzakri et al, Diabetologia, 47, 1314-1323, 2004). […] Cells were then washed four times with pre-warmed buffer (150 mmol/l NaCl, […] KCl, 1.2 mmol/l MgSO4, 1.2 mmol/l CaCL2, 2.5 mmol/l NaH2PO4, 10 mmol/l HEPES, pH 7.4) and glucose uptake was measured for 15 min using [3H]2-deoxyglucose (50 μmol/l, 14,800 Bq/well). Results were expressed as the percentage of glucose uptake in the absence of IGF-II or IGFBP-1.
Statistical analyses. The effect of IGF-II and IGFBP-1 in muscle cell culture was analyzed by two-way ANOVA. […]

Data set [6] concerns azurocidin-dependent protease activity. Kind of data set: Azurocidin-dependent protease activity on plate-bound biotinylated pIGFBP-1 with pre-bound peptides. In kind it is biochemical, human. Particulars: 100 ng peptide on plate-bound pIGFBP-1, partially purified azurocidin, 2 h, 37 C (FIG. 8B). On the procedure:
as §1, §3

The mark [7] stands for this setting: 10 mM cation, pH 7, 0.5 μL urine, 2 h, 37 C.

Turning to `c1cnc2c(c1)ccc1cccnc12` [1,10-phenothroline], the “effect on the degree of IGFBP-1 degradation” value (“effect on the degree” for short) in data set [1] (data not shown) is “no effect”.
`[Ca+2].[Cl-].[Cl-]` [CaCl2]: the “effect of divalent metal cations on proteolysis (densitometry of intact IGFBP-1)” value (shortened to “effect of divalent metal cations”) in data set [1] (setting [7]) is recorded as “significant promoting effect”.
For `[Cl-].[Cl-].[Co+2]` [CoCl2], the “effect of divalent metal cations” value in data set [1] (pH 7) was “inhibited”.
Regarding `[Cl][Cu][Cl]` [CuCl2], the “effect of divalent metal cations” value in data set [1] (setting [7]) was “inhibited”.
Regarding `O=C(O)CN(CCN(CC(=O)O)CC(=O)O)CC(=O)O` [EDTA], in data set [1], the “effect on the degree” value was “no effect”.
Turning to `O=C(O)CN(CCOCCOCCN(CC(=O)O)CC(=O)O)CC(=O)O` [EGTA], the “effect on the degree” value in data set [1] (data not shown) is recorded as “no effect”.
`[Cl][Ni][Cl]` [NiCl2]: the “effect of divalent metal cations” value in data set [1] (setting [7]) is “inhibited”.
For `O=S(=O)(F)Cc1ccccc1` [PMSF], the “effect on protease activity in urine” value in data set [1] (10 mM, pH 7, 0.5 μL urine, 2 h, 37 C) was “inhibited”.
In the case of `Cc1ccc(S(=O)(=O)N[C@@H](CCCCN)C(=O)CCl)cc1` [TLCK], the “effect on proteolysis in urine” value in data set [1] (concentration not given) is on record as “did not”.
For the molecule `Cc1ccc(S(=O)(=O)N[C@@H](Cc2ccccc2)C(=O)CCl)cc1` [TPCK], the “effect on proteolysis in urine” value in data set [1] (1 mM) is “inhibited”.
For the molecule `CC(C)C[C@H](NC(=O)[C@@H](NC(=O)N[C@@H](Cc1ccccc1)C(=O)O)[C@@H]1CCN=C(N)N1)C(=O)N[C@H](C=O)Cc1ccccc1` [chumostatin], the “effect on protease activity in urine” value in data set [1] (10 μM, pH 7, 0.5 μL urine, 2 h, 37 C) is “inhibited”.
Regarding `CC(C)CC(=O)N[C@H](C(=O)N[C@H](C(=O)N[C@@H](CC(C)C)[C@@H](O)CC(=O)N[C@@H](C)C(=O)N[C@@H](CC(C)C)[C@@H](O)CC(=O)O)C(C)C)C(C)C` [pepstatin, pepstatin A] (Isovaleryl-VV[Sta]A[Sta]-OH), in data set [2], the “effect on acid-activated urinary IGFBP-1 protease activity” value is on record as “inhibits”. In addition, in data set [3], the “effect on neutral urinary IGFBP-1 protease activity” value is reported as “not the neutral activity”.
For the molecule “IGF-I: recombinant human insulin-like growth factor I”, the “effect of peptides on IGFBP-1 proteolysis” value (“effect of peptides” for short) in data set [1] was “Partial inhibition”.
As to “IGF-II: human insulin-like growth factor II”, the “effect of peptides” value in data set [1] was “Partial inhibition”. In data set [4], the “stimulation of 3H-thymidine incorporation” value is 2 fold. Besides, the “stimulation of glucose uptake” value in data set [5] was “more than 2 fold”.
Turning to aprotinin, the “effect of aprotinin on protease activity (IGFBP-1 proteolysis)” value in data set [1] (100 μM aprotinin (FIG. 7A), pH 7, different experiments) was “either without effect, or even promoted protease activity; also recorded: increasing IGFBP-1 proteolysis”.
On to “cyclohexylacetyl-Phe-Arg-Ser-Val-Gln [kallikrein inhibitor]”, for which, in data set [1] (100 μM, pH 7, 0.5 μL urine, 2 h, 37 C), the “effect on protease activity in urine” value is listed as “inhibited”.
“des(1-3)-IGF-I: truncated IGF-I from GroPep”: in data set [6], the “effect of peptide on IGFBP-1 proteolysis” value was “no effect”.
Consider insulin, for which the “effect of peptides” value in data set [1] is listed as “no effect”.
